What was measured:
[1] = test system: eukaryotic cells; conditions: cited from earlier work; for cytotoxic activity against eukaryotic cells: Hofle et al., 1996; for cytotoxicity relative to epothilones A and B: desoxy counterparts compared with epothilones A and B
[2] = test system: breast and colon tumor cell lines; conditions: Hofle et al., 1996; cited from earlier work
[3] = Chou et al., 1998; cited from earlier work
[4] = Harris et al., 1999; cited from earlier work
[5] = target: T1, EpoK (Sorangium cellulosum, UniProt Q9KIZ4); assay: EpoK assay: conversion of epothilone D to epothilone B by recombinant his-tagged EpoK, LC/MS; type: biochemical; conditions: 30° C., 67 minutes
T1 construct: His6 (six histidine residues); made in house; host or cells: E. coli BL21(DE3) with pREP4-groELS; plasmids pKOS55-121 (N-terminal his) and pKOS55-129 (C-terminal his) in pET22b
T1 sequence (Q9KIZ4 1-419): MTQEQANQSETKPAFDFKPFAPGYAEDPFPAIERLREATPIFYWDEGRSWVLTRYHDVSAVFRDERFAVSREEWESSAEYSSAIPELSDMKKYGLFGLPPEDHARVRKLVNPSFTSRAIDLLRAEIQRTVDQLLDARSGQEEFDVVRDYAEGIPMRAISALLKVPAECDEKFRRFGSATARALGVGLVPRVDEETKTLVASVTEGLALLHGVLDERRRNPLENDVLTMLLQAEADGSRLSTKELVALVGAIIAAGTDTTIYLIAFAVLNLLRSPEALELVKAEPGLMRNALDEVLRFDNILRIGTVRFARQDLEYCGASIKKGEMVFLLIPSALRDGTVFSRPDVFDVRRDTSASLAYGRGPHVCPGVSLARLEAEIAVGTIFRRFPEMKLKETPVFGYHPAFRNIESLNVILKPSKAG
Source text: This Example describes the construction of E. coli expression vectors for heterologous expression of the Sorangium cellulosum epoK gene. The E. coli produced EpoK enzyme can be used in assays to identify inhibitors for use in the methods of the invention. The epoK gene product was expressed in E. coli as a fusion protein with a polyhistidine tag (his tag). The fusion protein was purified and used to convert epothilone D to epothilone B. This assay can be readily adapted to identify EpoK inhibitors.
Purification of EpoK was performed as follows. Plasmids pKOS55-121 and pKOS55-129 were transformed into BL21(DE3) containing the groELS expressing plasmid pREP4-groELS (Caspers et al., 1994, Cellular and Molecular Biology 40(5):635-644). The strains were inoculated into 250 mL of M9 medium supplemented with 2 mM MgSO4, 1% glucose, 20 mg thiamine, 5 mg FeCl2, 4 mg CaCl2 and 50 mg levulinic acid. The cultures were grown to an OD600 between 0.4 and 0.6, at which point IPTG was added to 1 mM, and the cultures were allowed to grow for an additional two hours. The cells were harvested and frozen at −80° C. The frozen cells were resuspended in 10 ml of buffer 1 (5 mM imidizole, 500 mM NaCl, and 45 mM Tris pH 7.6) and were lysed by sonicating three times for 15 seconds each on setting 8. The cellular debris was pelleted by centrifugation in an SS-34 rotor at 16,000 rpm for 30 minutes. The supernatant was removed and centrifuged again at 16,000 rpm for 30 minutes. The supernatant was loaded onto a 5 mL nickel column (Novagen), after which the column was washed with 50 mL of buffer 1 (Novagen). EpoK was eluted with a gradient from 5 mM to 1M imidizole. Fractions containing EpoK were pooled and dialyzed twice against 1 L of dialysis buffer (45 mM Tris pH7.6, 0.2 mM DTT, 0.1 mM EDTA, and 20% glycerol). Aliquots were frozen in liquid nitrogen and stored at −80° C. The protein preparations were greater than 90% pure.
The EpoK assay was performed as follows. Briefly, reactions consisted of 50 mM Tris (pH7.5), 21 µM spinach ferredoxin, 0.132 units of spinach ferredoxin: NADP^+oxidoreductase, 0.8 units of glucose-6-phosphate dehydrogenase, 1.4 mM NADP, and 7.1 mM glucose-6-phosphate, 100 μM or 200 ,μM epothilone D (a generous gift of S. Danishefsky), and 1.7 ,μM amino terminal his tagged EpoK or 1.6 μM carboxy terminal his-tagged EpoK in a 100 μL volume. The reactions were incubated at 30° C. for 67 minutes and stopped by heating at 90° C. for 2 minutes. The insoluble material was removed by centrifugation, and 50 μL of the supernatant were analyzed by LC/MS. […] In the presence of 200 μM, conversion was 44% and 21%, respectively.

[6] = test system: Sorangium cellulosum strain So ce 90; assay: Effect of metyrapone on growth of So ce 90 (FIG. 2); type: cell-based; conditions: metyrapone at 5 mM and 10 mM
Protocol: To prepare a seed culture, transfer cells from the DSM 6773 ampoule into a 250 mL baffled Erleneyer flask with 38 mm silicone foam closures containing 50 mL of sterile soybean meal. Soybean meal contains potato starch (Product No. S-2004, Sigma), 8 g/L; defatted soybean meal (Type 4890, Archer Daniels Midland), 2 g/L; yeast extract (Product No. BP 1422-500, Fisher Biotech), 2g/L; Iron (III) sodium salt EDTA (Product No. EDFS, Sigma), 0.008 g/L; MgSO4.7H20 (Product No. M-5921, Sigma), 1 g/L; CaCl2.2H20 (Product No. C-3991, Sigma), 1 g/L; glucose (Product No. G-5400, Sigma), 2g/L; HEPES buffer (Product No. H-3375, Sigma), 11.5 g/L. Use deionized water, and adjust pH to 7.4 with 10% KOH. Sterilize the flasks by autoclaving at 121° C. for at least 30 minutes. After autoclaving, add 2-3 drops of antifoam B to prevent foaming. Incubate the culture at 32° C. in a 250 RPM shaker for 4 days. After 4 days, the culture should appear an orange color. […]
To extract epothilone C and/or D, transfer the culture into a 50 mL centrifuge tube (Product no. 21008-178, VWR Scientific Products). […] Quantitation of epothilones C and D was performed by HPLC analysis with UV-DAD detection at 250 nm. […] Under these conditions, epothilone C was detected at 10.3 minutes and epothilone D was detected at 13.0 minutes. […]

[7] = test system: Sorangium cellulosum strain So ce 90; assay: Production of epothilones A, B, C and D by So ce 90 fermented in the presence of a P450 inhibitor, HPLC quantitation; type: cell-based; conditions: 10 mM metyrapone in production medium, 7 days
Protocol: To prepare a seed culture, transfer cells from the DSM 6773 ampoule into a 250 mL baffled Erleneyer flask with 38 mm silicone foam closures containing 50 mL of sterile soybean meal. Soybean meal contains potato starch (Product No. S-2004, Sigma), 8 g/L; defatted soybean meal (Type 4890, Archer Daniels Midland), 2 g/L; yeast extract (Product No. BP 1422-500, Fisher Biotech), 2g/L; Iron (III) sodium salt EDTA (Product No. EDFS, Sigma), 0.008 g/L; MgSO4.7H20 (Product No. M-5921, Sigma), 1 g/L; CaCl2.2H20 (Product No. C-3991, Sigma), 1 g/L; glucose (Product No. G-5400, Sigma), 2g/L; HEPES buffer (Product No. H-3375, Sigma), 11.5 g/L. Use deionized water, and adjust pH to 7.4 with 10% KOH. Sterilize the flasks by autoclaving at 121° C. for at least 30 minutes. After autoclaving, add 2-3 drops of antifoam B to prevent foaming. Incubate the culture at 32° C. in a 250 RPM shaker for 4 days. After 4 days, the culture should appear an orange color. Production cultures were prepared by sterilizing 50 mL of sterile soybean meal medium and 1 g of Amberlite XAD-16 absorption resin in a 250 mL baffled Erlenmeyer flask. Metyrapone (Product No. 856525, Sigma) is prepared by reconstituting to a final concentration of 2.5 M with 50:50 (v/v) DMSO:H2O. Metyrapone was added to a final concentration of 5 mM and 10 mM in each flask. 5 mL of the seed culture was inoculated to each flask and incubated at 30° C. in a shaker at 250 RPM for 7 days.
To extract epothilone C and/or D, transfer the culture into a 50 mL centrifuge tube (Product no. 21008-178, VWR Scientific Products). Decant the excess medium in the centrifuge tube without pouring off any of the resin. Wash the XAD-16 resin with 25 mL of H2O and allow the XAD-16 resin to settle by gravity in the tube. Carefully decant the H2O, and add 20 mL of 100% methanol to the tube. Place the centrifuge tube on a shaker at 175 RPM for 20-30 minutes to extract the epothilone products from the resin. Allow the XAD-16 pellets to settle, and transfer 2 mL using a pipette to a HPLC tube (Product nos. C4010-13, C4010-60A, National Scientific Company). Quantitation of epothilones C and D was performed by HPLC analysis with UV-DAD detection at 250 nm. 50 uL of the methanol extract was injected across a 4.6×10 mm guard column (Inertsil, C18 OD 53, 5um) and a 4.6 x 150 mm […] (Inertisil, C18 OD 53, 5 um). The assay method was isocratic, eluting with 60% acetonitrile and 40% water for 18 minutes at a flow rate of 1 ml/min. Under these conditions, epothilone C was detected at 10.3 minutes and epothilone D was detected at 13.0 minutes. The results showing the highest production of epothilones C and D, and the lowest production of epothilones A and B, in the presence of metyrapone and various other inhibitors is shown in FIG. 1. […]

SMILES: C/C(=C\c1csc(C)n1)[C@@H]1C[C@@H]2O[C@]2(C)CCC[C@H](C)[C@H](O)[C@@H](C)C(=O)C(C)(C)[C@@H](O)CC(=O)O1 [epothilone B]
- cytotoxic activity against eukaryotic cells [1]: broad cytotoxic activity
- activity against breast and colon tumor cell lines [2]: noticeable activity and selectivity

SMILES: C/C1=C/C[C@@H](/C(C)=C/c2csc(C)n2)OC(=O)C[C@H](O)C(C)(C)C(=O)[C@H](C)[C@@H](O)[C@@H](C)CCC1 [epothilone D]
- cytotoxicity relative to epothilones A and B [1]: less cytotoxic
- toxicity among naturally occurring epothilones studied [3]: lowest toxicity
- efficacy among naturally occurring epothilones studied [4]: greatest efficacy
- conversion of epothilone D to epothilone B ([5]; 100 μM epothilone D, 1.6 μM carboxy terminal his-tagged EpoK): 58%
- conversion of epothilone D to epothilone B ([5]; 100 μM epothilone D, 1.7 μM amino terminal his tagged EpoK): 82%
- conversion of epothilone D to epothilone B ([5]; 200 μM epothilone D, 1.6 μM carboxy terminal his-tagged EpoK): 21%
- conversion of epothilone D to epothilone B ([5]; 200 μM epothilone D, 1.7 μM amino terminal his tagged EpoK): 44%

SMILES: C/C(=C\c1csc(C)n1)[C@@H]1C[C@@H]2O[C@@H]2CCC[C@H](C)[C@H](O)[C@@H](C)C(=O)C(C)(C)[C@@H](O)CC(=O)O1 [epothilone A]
- cytotoxic activity against eukaryotic cells [1]: broad cytotoxic activity
- activity against breast and colon tumor cell lines [2]: noticeable activity and selectivity

SMILES: C/C(=C\c1csc(C)n1)[C@@H]1C/C=C\CCC[C@H](C)[C@H](O)[C@@H](C)C(=O)C(C)(C)[C@@H](O)CC(=O)O1 [epothilone C]
- cytotoxicity relative to epothilones A and B [1]: less cytotoxic

SMILES: CC(C)(C(=O)c1cccnc1)c1cccnc1 [metyrapone, 2-methyl-1,2-di-3-pyridyl-1-propanone]
- effect on growth of So ce 90 [6]: does not detrimentally inhibit the growth
- epothilone D produced by So ce 90 ([7]; without inhibitor 0.5 mg/L): 0.1 mg/L
- epothilone C produced by So ce 90 ([7]; without inhibitor 1.0 mg/L): 0.5 mg/L
- epothilone B produced by So ce 90 ([7]; without inhibitor 1.7 mg/L): 0.3 mg/L
- epothilone A produced by So ce 90 ([7]; without inhibitor 3.6 mg/L): 0.9 mg/L

Reference: US20020137152A1, “Fermentation process for epothilones” (priority 2000, published 2002)
